Reference: patent US20070071688A1, “Pharmaceutical compositions for transdermal administration of anti-inflammatory agents” (sanofi-aventis, priority 2000, published 2007)
In brackets after ≈: the same amount, converted by molar mass.

Tests used:
[1] = Preliminary trials on solubility of ibuprofen in various solvents or components; format: physicochemical
Experimental: In the context of the present invention, preliminary trials were carried out directed essentially toward studying the solubility of ibuprofen in various solvents or components.

[2] = Saturation solubility of ibuprofen in components of the transdermal formulation (without matrix); format: physicochemical; conditions: 30° C.
Experimental: Comparative tests were carried out in order to determine the saturation solubility of ibuprofen in various components of the transdermal formulation of the invention in the absence of matrix, namely water, 2-ethylhexyl 2-ethylhexanoate as transcutaneous absorption promoter, referred to hereinbelow as “promoter”, and isopropanol as nonaqueous solvent.
These various components were used alone or as homogeneous mixtures forming a clear solution, and the solubility measurements were performed at 30° C., after 24 hours of magnetic stirring and after filtration through a 0.22 μm filter.

solubility in water [1]: entirely water-insoluble
solubility in fatty acid ester/alcohol mixtures ([1]; 2-ethylhexyl 2-ethylhexanoate/ethanol or isopropanol mixtures): soluble
Ibuprofen saturating concentration ([2]; isopropanol 68.21 / promoter 31.79 % m/m, no water, 24 hours): 403 mg/mL
Ibuprofen saturating concentration ([2]; isopropanol 89.31 / promoter 10.69 % m/m, no water, 24 hours): 424 mg/mL
Ibuprofen saturating concentration ([2]; isopropanol 100% m/m, 24 hours magnetic stirring, 0.22 μm filtration): 441 mg/mL
Ibuprofen saturating concentration ([2]; promoter (2-ethylhexyl 2-ethylhexanoate) 100% m/m, 24 hours magnetic stirring, 0.22 μm filtration): 192 mg/mL
solubility thermodynamic at 24 h ([2]; thermodynamic from solid, water 100% m/m, 24 hours magnetic stirring, 0.22 μm filtration, read-out: Ibuprofen saturating concentration): 69 µg/mL (≈ 334 µM)
Ibuprofen saturating concentration ([2]; water 4.33 / isopropanol 85 / promoter 10.67 % m/m, 24 hours): 451 mg/mL
Ibuprofen saturating concentration ([2]; water 4.38 / isopropanol 68.16 / promoter 27.46 % m/m, 24 hours): 431 mg/mL
Ibuprofen saturating concentration ([2]; water 8.54 / isopropanol 68.23 / promoter 23.23 % m/m, 24 hours): 436 mg/mL
Ibuprofen saturating concentration ([2]; water 8.59 / isopropanol 80.7 / promoter 10.69 % m/m, 24 hours): 448 mg/mL
Structure (SMILES): CC(C)Cc1ccc(C(C)C(=O)O)cc1 (centres unmarked) [Ibuprofen]
